Where two headings read alike, the source gives them in different places.
Experiments:
LC3A/B puncta = assay: Autophagy induction analysis (LC3A/B puncta immuno-staining); type: cell-based, human
Procedure, shortened: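 WI-38 cells were treated with compounds for 24 hrs, then immunostained for LC3A/B (overnight, 4° C) with DAPI counterstain and imaged by high-content microscopy. Experiment 1 used total puncta intensity. Experiment 2 used LAMP2-colocalized (lysosomal) puncta. Intensity was normalized to nuclei count.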

human PARP1 = biological target: T1, human PARP1 (Homo sapiens, UniProt P09874); assay: PARP inhibitor assay (HT Fluorescent Homogeneous PARP Inhibition Assay Kit); type: biochemical; details: for L = PARP inhibition: score
T1 construct: purchased Trevigen
Procedure, shortened: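 Human PARP1 with NAD and activated DNA, compounds at 10 μM final, 30 min at room temperature in dark. Resazurin/diaphorase cycling mix then added for 1 hr in dark before stop buffer; fluorescent homogeneous kit read-out.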

NRF2 [1] = assay: in vitro; type: cell-based, human; details: for NRF2-dependency for H2O2-resistance, at 10 uM - with H2O2, 1st experiment: experiment 1 (1st); for NRF2-dependency for H2O2-resistance, at 10 uM - with H2O2, 2nd experiment: experiment 2 (2nd); for NRF2-dependency for H2O2-resistance, at 10 uM - with H2O2, 1st experiment / NRF2-dependency for H2O2-resistance, at 10 uM - with H2O2, 2nd experiment / NRF2-dependency for H2O2-resistance, 1st experiment / NRF2-dependency for H2O2-resistance, 2nd experiment / Assay 17: NRF2-dependency for H2O2-resistance / viability of non-stressed cells, reduced by: 10 uM; for NRF2-dependency for H2O2-resistance, 1st experiment / NRF2-dependency for H2O2-resistance, 2nd experiment: with H2O2, NRF2 knockdown in WI-38 cells, YES = resistance reduced by at least 50%, partial = 25% to 50%; for Assay 17: NRF2-dependency for H2O2-resistance: YES/NO; for NRF2-dependency of H2O2-resistance (NRF2 siRNA knockdown): at least 2 of 3 independent experiments; for viability of non-stressed cells, reduced by: human, 24 h
NRF2 [2] = assay: qPCR analysis of NRF2-regulated genes; type: cell-based, human; details: for fold induction at 10 µM: Homo sapiens
Procedure, shortened: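 WI-38 cells treated with compound at 10 μM for 24 hrs, then processed by Cells-to-Ct for RNA isolation, RT and qPCR of NRF2-regulated genes (HMOX1, NQO1, GCLC, GSTM1). Expression normalized to B2M, PPIA and GAPDH; siRNA knockdown of FOXO3 or NRF2 (10 nM) preceded treatment in some runs.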

[3] = 24 h, Assay 12(o), at 10 uM, qPCR, read-out: Induction of NRF2-regulated genes: GCLC normalized fold-change
[4] = 24 h, Assay 12(o), at 10 uM, qPCR, read-out: Induction of NRF2-regulated genes: HMOX1 normalized fold-change
[5] = rounded fold change, WI-38 cells, 10 μM, 24 hrs (RP11 for Gr-1D, RP29 for Gr-4D), read-out: Summary of effects on NRF2-regulated genes: HMOX1
[6] = rounded fold change, WI-38 cells, 10 μM, 24 hrs, read-out: Summary of effects on NRF2-regulated genes: GCLC
[7] = 10 μM, 24 hrs, WI-38 cells, qPCR, normalized to B2M, n = 4, read-out: GCLC expression, normalized fold change (NRF2-regulated gene)
[8] = 10 μM, 24 hrs, WI-38 cells, qPCR, normalized to B2M, n = 4, read-out: HMOX1 expression, normalized fold change (NRF2-regulated gene)
[9] = WI-38 cells, 10 μM, 24 hrs, n=4, qPCR normalized by B2M, read-out: GCLC Normalized fold change
[10] = WI-38 cells, 10 μM, 24 hrs, n=4, qPCR normalized by B2M, read-out: GSTM1 Normalized fold change
[11] = WI-38 cells, 10 μM, 24 hrs, n=4, qPCR normalized by B2M, read-out: HMOX1 Normalized fold change
[12] = WI-38 cells, 10 μM, 24 hrs, n=4, qPCR normalized by B2M, read-out: NQO1 Normalized fold change

T1 sequence (P09874 whole entry): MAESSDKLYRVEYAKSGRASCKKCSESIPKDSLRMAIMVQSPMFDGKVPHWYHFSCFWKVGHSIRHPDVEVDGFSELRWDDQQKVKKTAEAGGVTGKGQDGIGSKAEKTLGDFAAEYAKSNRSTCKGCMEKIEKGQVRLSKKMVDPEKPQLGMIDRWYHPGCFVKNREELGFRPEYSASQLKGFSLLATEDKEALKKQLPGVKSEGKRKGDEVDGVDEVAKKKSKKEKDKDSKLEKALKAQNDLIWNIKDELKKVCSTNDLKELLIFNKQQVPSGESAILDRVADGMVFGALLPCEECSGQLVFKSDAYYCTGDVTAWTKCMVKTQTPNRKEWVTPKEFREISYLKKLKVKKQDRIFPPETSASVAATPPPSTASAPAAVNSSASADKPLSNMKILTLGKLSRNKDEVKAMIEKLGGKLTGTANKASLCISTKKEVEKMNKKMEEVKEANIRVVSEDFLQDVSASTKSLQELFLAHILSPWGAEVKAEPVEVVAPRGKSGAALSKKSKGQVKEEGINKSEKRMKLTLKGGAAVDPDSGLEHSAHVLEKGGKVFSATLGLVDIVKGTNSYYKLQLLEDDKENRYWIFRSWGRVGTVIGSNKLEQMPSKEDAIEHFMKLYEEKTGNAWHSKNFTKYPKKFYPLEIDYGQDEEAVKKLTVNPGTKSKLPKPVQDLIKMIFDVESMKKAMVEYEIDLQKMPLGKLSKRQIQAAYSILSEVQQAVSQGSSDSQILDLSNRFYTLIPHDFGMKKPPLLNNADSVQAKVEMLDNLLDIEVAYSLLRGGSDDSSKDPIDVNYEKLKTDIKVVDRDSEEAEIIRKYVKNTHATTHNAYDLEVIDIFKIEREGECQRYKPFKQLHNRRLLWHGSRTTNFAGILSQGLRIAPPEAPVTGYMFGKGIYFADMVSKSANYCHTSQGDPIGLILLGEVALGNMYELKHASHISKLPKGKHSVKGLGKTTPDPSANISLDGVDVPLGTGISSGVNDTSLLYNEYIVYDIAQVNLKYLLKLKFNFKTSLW

Structure (SMILES) | H = Potential Autophagy Induction (LC3A/B puncta; score) | H = Potential Autophagy Induction (LC3A/B puncta; summary score) | L = PARP inhibition (human PARP1) | NRF2-dependency for H2O2-resistance, at 10 uM - with H2O2, 1st experiment (NRF2 [1]) | NRF2-dependency for H2O2-resistance, at 10 uM - with H2O2, 2nd experiment (NRF2 [1]) | NRF2-dependency for H2O2-resistance, 1st experiment (NRF2 [1]) | NRF2-dependency for H2O2-resistance, 2nd experiment (NRF2 [1]) | Assay 17: NRF2-dependency for H2O2-resistance (NRF2 [1]) | NRF2-dependency of H2O2-resistance (NRF2 siRNA knockdown) (NRF2 [1]) | J = NRF2-dependency for H2O2-resistance (NRF2 [1]; score) | J = NRF2-dependency for H2O2-resistance (NRF2 [1]; summary score) | F = Potential NRF2 Activation (NRF2 [2]; 2-point score) | fold induction at 10 µM (NRF2 [2]; [4]) | fold induction at 10 µM (NRF2 [2]; [5]) | fold induction at 10 µM (NRF2 [2]; [8]) | fold induction at 10 µM (NRF2 [2]; [9]) | fold induction at 10 µM (NRF2 [2]; [10]) | fold induction at 10 µM (NRF2 [2]; [11]) | fold induction at 10 µM (NRF2 [2]; [12]) | F = Potential NRF2 Activation (NRF2 [2]; summary score) | other results
O=C(NCc1cccnc1)/C(=C\c1cccc(Oc2ccccc2)c1)S(=O)(=O)c1ccccc1 [Gr-7A] | 0 | 0 | 0 | 1st, YES; | 2nd, YES. | YES; | YES. | YES | significantly attenuate | 1 | 1 | 0 | 15.2 | 15.2 | 15.2 | 0.602 | 1.09 | 15.2 | 0.779 | 0 | Survival of NRF2 siRNA-transfected cells in the absence of H2O2 (NRF2 [1]): could reduce the survival; viability of non-stressed cells, reduced by (NRF2 [1]): by 84%); fold induction at 10 µM (NRF2 [2]; [3]): 0.6; fold induction at 10 µM (NRF2 [2]; 24 h, Assay 12(o), at 10 uM, qPCR, read-out: Induction of NRF2-regulated genes: NQO1 normalized fold-change): 0.78; fold induction at 10 µM (NRF2 [2]; rounded fold change, WI-38 cells, 10 μM, 24 hrs (RP29 for Gr-4D), read-out: Summary of effects on NRF2-regulated genes: NQO1): 0.78; fold induction at 10 µM (NRF2 [2]; [6]): 0.6; fold induction at 10 µM (NRF2 [2]; [7]): 0.6; fold induction at 10 µM (NRF2 [2]; 10 μM, 24 hrs, WI-38 cells, qPCR, normalized to B2M, n = 4, read-out: NQO1 expression, normalized fold change (NRF2-regulated gene)): 0.78
O=C(NCc1cccnc1)/C(=C\c1ccc(Br)cc1)S(=O)(=O)c1ccccc1 [Gr-7B] | 0 | 0 | 0 | 1st, partial; | 2nd, partial. | partial; | partial. | YES | significantly attenuate | 1 | 1 | 0 | 17.9 | 54.1 | 54.1 | 1.8 | 0.981 | 54.2 | 1.41 | 0 | 
O=C(NCc1cccnc1)/C(=C/c1ccc(-c2ccc(Cl)cc2)o1)S(=O)(=O)c1ccccc1 [Gr-7C] | 0 | 0 | 0 | 1st, YES; |  | YES; |  | YES | significantly attenuate | 1 | 1 | 2 | 28.1 | 28.1 | 28.1 | 2.27 | 0.784 | 28 | 0.811 | 2 | Survival of NRF2 siRNA-transfected cells in the absence of H2O2 (NRF2 [1]): could reduce the survival; viability of non-stressed cells, reduced by (NRF2 [1]): by 60%); Potential NRF2 Activation (>=2 target genes induced, by >=1.5-fold) (NRF2 [2]; Assay 13(p)): YES; fold induction at 10 µM (NRF2 [2]; [3]): 2.27; fold induction at 10 µM (NRF2 [2]; 24 h, Assay 12(o), at 10 uM, qPCR, read-out: Induction of NRF2-regulated genes: GSTM1 normalized fold-change): 0.78; fold induction at 10 µM (NRF2 [2]; rounded fold change, WI-38 cells, 10 μM, 24 hrs (RP29 for Gr-4D), read-out: Summary of effects on NRF2-regulated genes: GSTM1): 0.78; fold induction at 10 µM (NRF2 [2]; [6]): 2.27; fold induction at 10 µM (NRF2 [2]; 10 μM, 24 hrs, WI-38, read-out: Expression of at least two NRF2 target genes): > 1.5; fold induction at 10 µM (NRF2 [2]; [7]): 2.27; fold induction at 10 µM (NRF2 [2]; 10 μM, 24 hrs, WI-38 cells, qPCR, normalized to B2M, n = 4, read-out: GSTM1 expression, normalized fold change (NRF2-regulated gene)): 0.78
O=C1NCCCc2cc(Cl)sc21 [O1] | 0 | 0 | 1 | 1st, partial; | 2nd, partial. | partial; | partial. | YES | significantly attenuate | 1 | 1 | 0 |  |  |  | 1.21 | 1.09 | 1.25 | 1.08 | 0 | Inhibition of PARP1 (human PARP1; 10 μM, in vitro): inhibitors of PARP1
